Here are results for 9 molecules from patent US20250228855A1, “PYRAZINAMIDE COMPOUNDS” (The General Hospital Corporation, priority 2022, published 2025).

Counter-ions that a name gives are not always drawn. Like-named read-outs stand apart in the source and are kept apart here.

The subject of series [1] is luciferase-expressing P. berghei ANKA sporozoites. Kind of series: P. berghei liver stage assay in HuH7 cells. In kind it is cell-based. The settings on record: Plasmodium berghei, Huh-7; HuH7 hepatocytes, ~44 hpi, luminescence. Here is the method: (§1) Halofuginone and derivatives are active against liver stage Plasmodium parasites. NCP26 and MAT436 were evaluated in a tissue culture-based P. berghei liver stage model. Specifically, various test compounds were added in dose-response to human hepatocytes (HuH7) followed by infection with luciferase-expressing P. berghei ANKA sporozoites, which enabled quantification of parasite load by luminescence. In parallel, host cell viability was also assessed to provide an estimate of cellular selectivity.
(§2) P. berghei Liver Stage and HuH7 Host Hepatocyte Growth Assay: HuH7 cells (Sigma) were cultured in DMEM+L-Glutamine (Gibco) supplemented with 10% (v/v) heat-inactivated FBS (Sigma) and 1% (v/v) antibiotic/antimycotic (Sigma). Hepatocyte cultures were maintained in a standard tissue culture incubator at 37° C. Anopheles mosquitoes infected with luciferase-expressing P. berghei ANKA sporozoites were obtained from the Sporocore at the University of Georgia. […] At ˜44 hpi, HuH7 cell viability and P. berghei parasite load was assessed using CellTiter-Fluor (Promega) and Bright-Glo (Promega), respectively, using an Envision plate reader. Relative fluorescence and luminescence signal intensities were normalized to the negative control, 1% DMSO. EC50 values were determined using GraphPad Prism through fitting data to a dose response curve. […]

The target in the next series is PfcProRS (Plasmodium falciparum, UniProt Q8I5R7). Kind of series: TR-FRET ligand displacement assay with tracer MAT379, PfcProRS. In kind it is binding. Background: In TR-FRET formats the signal depends on donor and acceptor labels being close together.
Sequence of PfcProRS (Q8I5R7 whole entry): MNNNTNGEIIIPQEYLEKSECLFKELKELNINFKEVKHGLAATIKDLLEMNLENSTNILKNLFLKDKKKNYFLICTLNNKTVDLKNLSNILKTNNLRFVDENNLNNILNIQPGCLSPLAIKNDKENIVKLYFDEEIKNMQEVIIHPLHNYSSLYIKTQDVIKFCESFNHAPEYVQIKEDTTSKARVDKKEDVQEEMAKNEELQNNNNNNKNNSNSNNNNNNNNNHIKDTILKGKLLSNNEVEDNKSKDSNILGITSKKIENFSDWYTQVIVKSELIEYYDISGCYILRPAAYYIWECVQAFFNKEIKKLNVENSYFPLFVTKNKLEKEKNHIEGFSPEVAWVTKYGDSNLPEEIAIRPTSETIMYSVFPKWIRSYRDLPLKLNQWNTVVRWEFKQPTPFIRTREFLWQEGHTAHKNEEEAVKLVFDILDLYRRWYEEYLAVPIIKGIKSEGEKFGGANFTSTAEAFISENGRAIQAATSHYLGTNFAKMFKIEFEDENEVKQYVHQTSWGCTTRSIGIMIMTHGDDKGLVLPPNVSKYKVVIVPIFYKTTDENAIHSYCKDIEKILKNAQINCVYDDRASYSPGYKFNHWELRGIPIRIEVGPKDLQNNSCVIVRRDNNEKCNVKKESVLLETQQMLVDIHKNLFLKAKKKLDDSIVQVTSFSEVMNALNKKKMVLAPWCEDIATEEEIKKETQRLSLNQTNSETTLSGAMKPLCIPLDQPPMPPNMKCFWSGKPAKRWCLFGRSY
Series [2] is described as follows: Storage stability of MAT436·HBr (LC-MS). The class given is physicochemical.
A further series concerns P. falciparum Dd2-2D4. The series is described as follows: P. falciparum asexual blood stage growth assay, wild-type Dd2-2D4. The settings on record: Plasmodium falciparum.
Series [3] deals with halofuginone-induced (HFG-induced) P. falciparum. Kind of series: P. falciparum asexual blood stage growth assay, halofuginone-induced parasites. The settings on record: Plasmodium falciparum.
Protocol: (§3) Asexual blood stage (ABS) P. falciparum parasites were treated with test compounds at varying concentrations for 72 h, followed by quantification of parasite growth by SYBR Green staining.
(§4) P. falciparum Asexual Blood Stage Growth Assay: This assay was performed as previously described.
The target in the next series is T1, HsProRS (Homo sapiens, UniProt P07814).
T1 sequence (P07814 1007-1512 limits assumed): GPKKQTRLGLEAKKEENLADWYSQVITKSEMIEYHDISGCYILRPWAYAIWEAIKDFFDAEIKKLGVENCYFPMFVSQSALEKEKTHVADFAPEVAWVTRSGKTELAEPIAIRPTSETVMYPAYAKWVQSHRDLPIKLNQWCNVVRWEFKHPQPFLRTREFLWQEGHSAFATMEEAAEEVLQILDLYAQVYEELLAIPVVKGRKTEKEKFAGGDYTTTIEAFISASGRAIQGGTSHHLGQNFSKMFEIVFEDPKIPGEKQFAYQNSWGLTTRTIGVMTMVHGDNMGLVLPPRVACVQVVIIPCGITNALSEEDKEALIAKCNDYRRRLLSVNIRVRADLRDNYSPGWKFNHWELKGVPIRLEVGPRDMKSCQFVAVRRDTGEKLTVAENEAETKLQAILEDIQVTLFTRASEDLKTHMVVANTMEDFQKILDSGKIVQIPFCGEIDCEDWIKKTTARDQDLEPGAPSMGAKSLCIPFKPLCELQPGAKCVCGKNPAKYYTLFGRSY
The series is described as follows: TR-FRET ligand displacement assay with tracer MAT379, HsProRS. The class given is binding.

For the next series, the system named is HuH7 cells. The series is described as follows: HuH7 host hepatocyte viability assay. In kind it is cell-based. The settings on record: Homo sapiens, Huh-7; host cell viability. Here is the method: as §1, §2
[4] abbreviates: PfcProRS (KD [nM]) +proline, 100 μM Pro.
The mark [5] stands for this setting: DD2, 72 h, read-out: Dd2 (EC50 [nM]) wt.
Setting [6] is: DD2, read-out: EC50 against Dd2-2D4 wildtype parasites.
Setting [7] is: DD2, 72 h, read-out: Dd2 (EC50 [nM]) Halofuginone-induced.
Where [8] appears, read: no proline, no ATP, read-out: HsProRS (KD [nM]) −.
[9] abbreviates: read-out: HsProRS (KD [nM]) +proline, 100 μM Pro.
[10] abbreviates: no proline, no ATP, read-out: PfcProRS (KD [nM]) −.
Where [11] appears, read: read-out: EC50 in halofuginone-induced parasites.
The mark [12] stands for this setting: PfcProRS (KD [nM]) +ATP, 500 μM ATP.
[13] abbreviates: read-out: HsProRS (KD [nM]) +ATP, +ATP.
Setting [14] is: absence of proline, read-out: KD for PfcProRS.

Protocol for P. falciparum Dd2-2D4: as §3, §4

Broadly, the EC50 is the concentration at which the effect is half-maximal. One may read the Kd as a measure of binding affinity in units of concentration. Regarding `O=C(C[C@H]1NCCC[C@@H]1OC(=O)NS(=O)(=O)N1CCN(C(=O)Nc2nccnc2C(=O)NC2Cc3ccccc3C2)CC1)Cn1cnc2cc(Br)c(Cl)cc2c1=O` (relative stereo) [MAT436 (34), trans-2-(3-(7-bromo-6-chloro-4-oxoquinazolin-3(4H)-yl)-2-oxopropyl)piperidin-3-yl ((4-((3-((2,3-dihydro-1H-inden-2-yl)carbamoyl)pyrazin-2-yl)carbamoyl)piperazin-1-yl)sulfonyl)carbamate hydrobromide], the EC50 in series [1] amounted to 0.186 µM; in the series on P. falciparum Dd2-2D4 (setting [5]), 6.76 nM; in the series with P. falciparum Dd2-2D4 (setting [6]), 6.8 nM; in series [3] (setting [7]) it was 251 nM. In addition, the Kd came out at 0.722 nM on PfcProRS (setting [4]) and 0.375 nM on PfcProRS (absence of ATP, read-out: KD for PfcProRS). Also, the “fold affinity for PfcProRS compared to halofuginone in the absence of ATP” value on PfcProRS (absence of ATP) is reported as > 10^4 fold. Further, the “hydrolyzed at carbamate carbonyl” value in series [2] (10 mM stock solution in DMSO, 8 days at room temperature, LC-MS) is approximately 36%. In series [2] (neat, 4° C.), the “stability of neat compound” value is given as “stable indefinitely”.
`O=C(CCCCCNC(=O)Nc1ccccc1)NCC1CCN(C(=O)Nc2nccnc2C(=O)NC2Cc3ccccc3C2)CC1` [MAT516]: the dissociation constant Kd on HsProRS (setting [8]) amounted to 402 nM; at HsProRS (setting [9]), 159 nM; on PfcProRS (setting [10]), 94.1 nM; on PfcProRS (read-out: PfcProRS (KD [nM]) +proline, 100 μM Pro), 60.8 nM. For the same molecule, the figures for the EC50 (with P. falciparum Dd2-2D4 (setting [5]); in series [3] (setting [7])) were 636 nM and 4760 nM, respectively.
Take `CC1(C(=O)Nc2nccnc2C(=O)NC2Cc3ccccc3C2)CCCCC1` [Compound 4, N-(2,3-dihydro-1H-inden-2-yl)-3-(1-methylcyclohexane-1-carboxamido)pyrazine-2-carboxamide]: the Kd at HsProRS (setting [8]) came out at 221 nM; on HsProRS (setting [9]), 2.55 nM; on PfcProRS (setting [4]), 3.42 nM; on PfcProRS (setting [10]) it was 275 nM. Besides, the EC50 in the series with P. falciparum Dd2-2D4 (setting [5]) was 180 nM; with P. falciparum Dd2-2D4 (setting [6]) it was 180 nM; in series [3] (setting [7]), 540 nM; in series [3] (setting [11]) it was 540 nM.
For `O=C(C[C@H]1NCCC[C@@H]1O)Cn1cnc2cc(Br)c(Cl)cc2c1=O` [halofuginone(1), halofuginone, reference compound], the Kd was 2040 nM on HsProRS; 0.225 nM at HsProRS (HsProRS (KD [nM]) +ATP, +ATP); 1160 nM at HsProRS (setting [8]); 0.503 nM on PfcProRS (setting [12]); more than 3000 nM at PfcProRS (setting [4]); more than 3000 nM at PfcProRS (setting [10]). In addition, the EC50 was 0.519 nM in the series on P. falciparum Dd2-2D4 (setting [5]) and 19.2 nM in series [3] (setting [7]).
Consider `O=C(NC1Cc2ccccc2C1)c1nccnc1NC(=O)N1CCCCC1` [NCP26 (3), N-(2,3-dihydro-1H-inden-2-yl)-3-(piperidine-1-carboxamido)pyrazine-2-carboxamide], for which the Kd on HsProRS (setting [8]) stood at 271 nM; on HsProRS (setting [13]) it was 678 nM; on HsProRS (setting [9]) it was 0.351 nM; at PfcProRS (setting [12]), 103 nM; on PfcProRS (setting [4]), 2.52 nM; at PfcProRS (setting [10]), 130 nM. Further, the EC50 was 0.249 µM in series [1]; more than 2.5 µM in the series with HuH7 cells; 67.4 nM in the series with P. falciparum Dd2-2D4 (setting [5]); 67.4 nM in the series with P. falciparum Dd2-2D4 (setting [6]); 120 nM in series [3] (setting [7]); 120 nM in series [3] (setting [11]).
Turning to `C[C@@H]1CCC[C@H](C)N1C(=O)Nc1nccnc1C(=O)NC1Cc2ccccc2C1` [Compound 19, N-(2,3-dihydro-1H-inden-2-yl)-3-(cis-2,6-dimethylpiperidine-1-carboxamido)pyrazine-2-carboxamide], the Kd is more than 8720 nM at HsProRS (setting [8]), 1320 nM on HsProRS (setting [9]), 1180 nM at PfcProRS (setting [4]) and more than 2860 nM at PfcProRS (setting [10]). For the same molecule, the EC50 was more than 10000 nM in the series on P. falciparum Dd2-2D4 (setting [5]) and 8590 nM in series [3] (setting [7]).
Consider `O=C(NC1Cc2ccccc2C1)c1nccnc1NC(=O)C1CCCCC1` [Compound 2, 3-(cyclohexanecarboxamido)-N-(2,3-dihydro-1H-inden-2-yl)pyrazine-2-carboxamide, reference compound], for which the Kd at HsProRS (setting [8]) was 371 nM; at HsProRS (setting [13]), 954 nM; on HsProRS (setting [9]) it was 2.16 nM; on PfcProRS (setting [12]) it was 291 nM; at PfcProRS (setting [4]) it was 7.17 nM; at PfcProRS (setting [10]), 437 nM. Further, the EC50 with P. falciparum Dd2-2D4 (setting [5]) worked out at 595 nM; in the series on P. falciparum Dd2-2D4 (setting [6]), 595 nM; in series [3] (setting [7]) it was 1250 nM; in series [3] (setting [11]) it was 1250 nM.
What is called IC50 is the concentration needed to halve the response being measured. As for `Nc1ncnc2c1ncn2[C@@H]1O[C@H](CNS(=O)(=O)NC(=O)OCCn2cnc3ccccc3c2=O)[C@@H](O)[C@H]1O` [MAT511, 2-(4-oxoquinazolin-3(4H)-yl)ethyl (N-(((2R,3S,4R,5R)-5-(6-amino-9H-purin-9-yl)-3,4-dihydroxytetrahydrofuran-2-yl)methyl)sulfamoyl)carbamate], the dissociation constant Kd was more than 5090 nM on HsProRS; more than 10000 nM at HsProRS (absence of proline, read-out: KD for HsProRS); more than 8720 nM at HsProRS (setting [8]); 1810 nM at PfcProRS (setting [4]); more than 10000 nM at PfcProRS (setting [14]); more than 2860 nM on PfcProRS (setting [10]). The EC50 with P. falciparum Dd2-2D4 (setting [5]) is 76.5 nM; in series [3] (setting [7]), 52.2 nM. The IC50 in the series on P. falciparum Dd2-2D4 (DD2, read-out: IC50 for Dd2-2D4) was determined as 0.0739 µM.
On to `O=C(NS(=O)(=O)N1CCN(C(=O)Nc2nccnc2C(=O)NC2Cc3ccccc3C2)CC1)OC[C@@H]1CCCN1` [MAT457, (S)-pyrrolidin-2-ylmethyl ((4-((3-((2,3-dihydro-1H-inden-2-yl)carbamoyl)pyrazin-2-yl)carbamoyl)piperazin-1-yl)sulfonyl)carbamate hydrochloride], for which the Kd at HsProRS (KD for HsProRS) was 9.71 nM; on HsProRS (KD for HsProRS in presence of 100 μM proline, 100 μM proline), 16.3 nM; on PfcProRS (setting [4]) it was 118 nM; at PfcProRS (setting [14]), 152 nM. The EC50 in the series on P. falciparum Dd2-2D4 (setting [5]) is 968 nM; in the series with P. falciparum Dd2-2D4 (setting [6]) it was 968 nM; in series [3] (setting [7]), 6570 nM; in series [3] (setting [11]) it was more than 10000 nM.
